For 6 compounds, AC50, EC50 and IC50 results are on record in ChEMBL document CHEMBL1201862, “PubChem BioAssay data set” (2004).

Test [1] is described as follows: HEK293 cell cytotoxicity, dose response, cytotoxicity control, plate reader, cherry-picked samples (AID 743446). It is filed as functional, cell-based.
The target in the next test is T1, CAAX prenyl protease 2 (Saccharomyces cerevisiae S288c, UniProt Q03530).
T1 sequence (Q03530 whole entry): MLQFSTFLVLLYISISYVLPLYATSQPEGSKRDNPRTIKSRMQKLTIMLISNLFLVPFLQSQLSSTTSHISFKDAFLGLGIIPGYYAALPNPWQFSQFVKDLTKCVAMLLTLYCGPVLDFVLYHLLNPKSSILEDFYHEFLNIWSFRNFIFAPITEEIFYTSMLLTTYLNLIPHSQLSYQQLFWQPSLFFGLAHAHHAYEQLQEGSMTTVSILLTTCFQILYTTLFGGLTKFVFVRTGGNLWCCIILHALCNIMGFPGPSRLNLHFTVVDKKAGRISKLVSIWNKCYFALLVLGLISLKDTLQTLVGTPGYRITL
In kind it is biochemical.

Another test addresses Trypsin (Sus scrofa, UniProt P00761). Kind of test: porcine trypsin inhibitors, dose response, selectivity assay for Rce1 protease inhibitor project, biochemical, quenched peptide fluorescence, cherry-pick (AID 488789).
The target of a further test is T2, Streptokinase A (Streptococcus pyogenes serotype M1, UniProt P10520).
T2 sequence (P10520 whole entry): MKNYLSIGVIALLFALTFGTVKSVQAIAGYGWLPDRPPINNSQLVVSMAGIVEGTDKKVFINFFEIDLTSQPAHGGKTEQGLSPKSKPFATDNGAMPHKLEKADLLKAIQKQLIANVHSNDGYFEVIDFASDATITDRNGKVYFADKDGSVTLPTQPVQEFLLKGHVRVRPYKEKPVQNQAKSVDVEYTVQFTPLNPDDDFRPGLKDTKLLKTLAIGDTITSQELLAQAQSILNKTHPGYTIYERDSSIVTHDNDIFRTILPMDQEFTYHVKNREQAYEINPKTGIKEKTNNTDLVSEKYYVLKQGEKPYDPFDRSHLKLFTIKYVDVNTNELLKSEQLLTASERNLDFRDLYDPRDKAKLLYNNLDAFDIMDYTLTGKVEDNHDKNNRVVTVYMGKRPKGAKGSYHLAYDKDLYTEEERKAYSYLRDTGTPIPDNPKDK
Kind of test: S. pyogenes streptokinase expression inhibitors, potency, dose response, plasminogen activation absorbance, OD405 (AID 1914).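 Also: secreted streptokinase activity via plasminogen activation per viability signal from cell pellet.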 In kind it is functional, Streptococcus pyogenes M1 GAS.

A short description of test [2]: HepG2 cell cytotoxicity, dose response, cytotoxicity control, plate reader, cherry-pick, antagonist series (AID 743416). In kind it is functional, cell-based.
The test system of test [3] is Streptococcus sp. 'group A'. Kind of test: growth inhibition of control SK(-) GAS strain, dose response, counter-screen for streptokinase expression inhibitor project, luminescence, kanamycin, BacTiterGlo, confirmation (AID 1900). It is filed as functional, organism-based.
A further test concerns Streptococcus. Kind of test: Group A Streptococcus viability loss, dose response, counter-screen for streptokinase expression inhibitor project, luminescence, BacTiterGlo (AID 1915).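 Also: potency for reduction of bacterial viability or growth.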 It is filed as functional, organism-based.
The nature of test [4]: LGR2 antagonists, dose response, cell-based, HEK293, CRE-luciferase reporter, cherry pick, set 2 (AID 743343).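 Also: transfected cells were stimulated with diluted bursicon conditioned medium after compound addition.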 It is filed as functional.
Test [5] can be described thus: A549 cell cytotoxicity, dose response, cytotoxicity control, plate reader, cherry-pick, antagonist series (AID 743412). It is filed as functional, cell-based.
Test [6] can be described thus: MC4R antagonists, dose response, counter-screen for LGR2 antagonist project, cell-based, plate reader, cherry pick (AID 743444).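 Also: transfected HEK 293 cells stimulated with alpha-MSH peptide; potency of inhibitors of the alpha-MSH evoked signal.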 It is filed as functional.
For the next test, the target named is T3, Caspase-7 (Homo sapiens, UniProt P55210).
T3 sequence (P55210 whole entry): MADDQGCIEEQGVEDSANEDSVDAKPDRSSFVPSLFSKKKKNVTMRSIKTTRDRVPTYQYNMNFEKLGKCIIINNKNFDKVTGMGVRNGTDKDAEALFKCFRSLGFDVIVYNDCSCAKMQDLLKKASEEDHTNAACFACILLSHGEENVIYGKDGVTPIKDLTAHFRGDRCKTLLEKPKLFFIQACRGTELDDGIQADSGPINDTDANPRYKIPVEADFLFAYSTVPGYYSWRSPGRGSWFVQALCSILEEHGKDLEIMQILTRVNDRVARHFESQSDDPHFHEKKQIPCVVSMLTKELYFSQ
Briefly: procaspase-7 activators, dose response, counter-screen for procaspase-3 activator project, biochemical, absorbance (AID 489013).

A further test concerns the target T4, Caspase-3 (Homo sapiens, UniProt P42574).
T4 sequence (P42574 whole entry): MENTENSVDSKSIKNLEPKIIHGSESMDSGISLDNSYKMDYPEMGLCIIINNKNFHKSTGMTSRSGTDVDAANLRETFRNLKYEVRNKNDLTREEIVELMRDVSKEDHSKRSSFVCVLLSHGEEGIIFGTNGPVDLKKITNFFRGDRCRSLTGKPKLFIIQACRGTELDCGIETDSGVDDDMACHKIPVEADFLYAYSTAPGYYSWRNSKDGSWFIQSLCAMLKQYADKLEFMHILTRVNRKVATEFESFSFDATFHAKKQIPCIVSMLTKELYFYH
Kind of test: procaspase-3 activators, dose response, biochemical, absorbance (AID 489014).

Test [7] concerns the target T5, Voltage-dependent T-type calcium channel subunit alpha-1H (Homo sapiens, UniProt O95180). It is filed as functional.
The target in test [8] is T6, Endoribonuclease toxin MazF (Escherichia coli K-12, UniProt P0AE70).
T6 sequence (P0AE70 whole entry): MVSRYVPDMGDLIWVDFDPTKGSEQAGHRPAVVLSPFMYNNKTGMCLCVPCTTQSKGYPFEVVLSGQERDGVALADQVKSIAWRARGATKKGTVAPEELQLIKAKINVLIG
Kind of test: fluorescent RNA oligo signal without MazF, dose response, counter-screen for MazEF activator project, biochemical, fluorescence, single-stranded RNase substrate (AID 588502). It is filed as functional.

In test [9] the target is T5, Voltage-dependent T-type calcium channel subunit alpha-1H. Briefly: Inhibitors of T-Type Calcium Channels. [Related pubchem assays (depositor defined):AID449739, AID463087, AID489005, AID493041, AID504579, AID504584, AID504619, AID504628]. It is filed as functional.
Test [10] has as its target T6, Endoribonuclease toxin MazF. Briefly: MazF toxin RNase activators, dose response, biochemical, fluorescence, single-stranded RNA substrate, uHTS hits (AID 588481). It is filed as functional.
Test [11] concerns the target T7, Tyrosine-protein phosphatase non-receptor type 7 (Homo sapiens, UniProt P35236).
T7 sequence (P35236 whole entry): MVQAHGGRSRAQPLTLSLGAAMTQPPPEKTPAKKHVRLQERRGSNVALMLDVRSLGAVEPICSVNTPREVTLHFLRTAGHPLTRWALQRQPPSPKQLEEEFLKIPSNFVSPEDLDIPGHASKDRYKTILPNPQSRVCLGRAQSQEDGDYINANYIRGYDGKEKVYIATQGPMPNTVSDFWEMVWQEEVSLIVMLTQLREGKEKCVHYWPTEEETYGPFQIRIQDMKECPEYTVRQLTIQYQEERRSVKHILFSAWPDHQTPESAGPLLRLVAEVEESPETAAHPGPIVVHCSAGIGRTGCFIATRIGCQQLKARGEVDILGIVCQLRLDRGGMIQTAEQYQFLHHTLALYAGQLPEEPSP
Kind of test: redox-dependent HePTP inhibition, mechanism study, biochemical, fluorescence (AID 2068). It is filed as functional.

Test [12] in a line: inhibition of K1F phage lysis, E. coli UTI89, bacterial capsule biogenesis inhibitors, alamar blue (AID 488966). It is filed as functional.
For test [13], the target named is NACHT, LRR and PYD domains-containing protein 3 (Homo sapiens, UniProt Q96P20). Briefly: NALP3 inhibitors in yeast, dose response, luminescent (AID 488799). It is filed as functional.

Structures can show the parent of a compound that is named as a salt. The source made the active and inactive calls.

T5 sequence (O95180 whole entry): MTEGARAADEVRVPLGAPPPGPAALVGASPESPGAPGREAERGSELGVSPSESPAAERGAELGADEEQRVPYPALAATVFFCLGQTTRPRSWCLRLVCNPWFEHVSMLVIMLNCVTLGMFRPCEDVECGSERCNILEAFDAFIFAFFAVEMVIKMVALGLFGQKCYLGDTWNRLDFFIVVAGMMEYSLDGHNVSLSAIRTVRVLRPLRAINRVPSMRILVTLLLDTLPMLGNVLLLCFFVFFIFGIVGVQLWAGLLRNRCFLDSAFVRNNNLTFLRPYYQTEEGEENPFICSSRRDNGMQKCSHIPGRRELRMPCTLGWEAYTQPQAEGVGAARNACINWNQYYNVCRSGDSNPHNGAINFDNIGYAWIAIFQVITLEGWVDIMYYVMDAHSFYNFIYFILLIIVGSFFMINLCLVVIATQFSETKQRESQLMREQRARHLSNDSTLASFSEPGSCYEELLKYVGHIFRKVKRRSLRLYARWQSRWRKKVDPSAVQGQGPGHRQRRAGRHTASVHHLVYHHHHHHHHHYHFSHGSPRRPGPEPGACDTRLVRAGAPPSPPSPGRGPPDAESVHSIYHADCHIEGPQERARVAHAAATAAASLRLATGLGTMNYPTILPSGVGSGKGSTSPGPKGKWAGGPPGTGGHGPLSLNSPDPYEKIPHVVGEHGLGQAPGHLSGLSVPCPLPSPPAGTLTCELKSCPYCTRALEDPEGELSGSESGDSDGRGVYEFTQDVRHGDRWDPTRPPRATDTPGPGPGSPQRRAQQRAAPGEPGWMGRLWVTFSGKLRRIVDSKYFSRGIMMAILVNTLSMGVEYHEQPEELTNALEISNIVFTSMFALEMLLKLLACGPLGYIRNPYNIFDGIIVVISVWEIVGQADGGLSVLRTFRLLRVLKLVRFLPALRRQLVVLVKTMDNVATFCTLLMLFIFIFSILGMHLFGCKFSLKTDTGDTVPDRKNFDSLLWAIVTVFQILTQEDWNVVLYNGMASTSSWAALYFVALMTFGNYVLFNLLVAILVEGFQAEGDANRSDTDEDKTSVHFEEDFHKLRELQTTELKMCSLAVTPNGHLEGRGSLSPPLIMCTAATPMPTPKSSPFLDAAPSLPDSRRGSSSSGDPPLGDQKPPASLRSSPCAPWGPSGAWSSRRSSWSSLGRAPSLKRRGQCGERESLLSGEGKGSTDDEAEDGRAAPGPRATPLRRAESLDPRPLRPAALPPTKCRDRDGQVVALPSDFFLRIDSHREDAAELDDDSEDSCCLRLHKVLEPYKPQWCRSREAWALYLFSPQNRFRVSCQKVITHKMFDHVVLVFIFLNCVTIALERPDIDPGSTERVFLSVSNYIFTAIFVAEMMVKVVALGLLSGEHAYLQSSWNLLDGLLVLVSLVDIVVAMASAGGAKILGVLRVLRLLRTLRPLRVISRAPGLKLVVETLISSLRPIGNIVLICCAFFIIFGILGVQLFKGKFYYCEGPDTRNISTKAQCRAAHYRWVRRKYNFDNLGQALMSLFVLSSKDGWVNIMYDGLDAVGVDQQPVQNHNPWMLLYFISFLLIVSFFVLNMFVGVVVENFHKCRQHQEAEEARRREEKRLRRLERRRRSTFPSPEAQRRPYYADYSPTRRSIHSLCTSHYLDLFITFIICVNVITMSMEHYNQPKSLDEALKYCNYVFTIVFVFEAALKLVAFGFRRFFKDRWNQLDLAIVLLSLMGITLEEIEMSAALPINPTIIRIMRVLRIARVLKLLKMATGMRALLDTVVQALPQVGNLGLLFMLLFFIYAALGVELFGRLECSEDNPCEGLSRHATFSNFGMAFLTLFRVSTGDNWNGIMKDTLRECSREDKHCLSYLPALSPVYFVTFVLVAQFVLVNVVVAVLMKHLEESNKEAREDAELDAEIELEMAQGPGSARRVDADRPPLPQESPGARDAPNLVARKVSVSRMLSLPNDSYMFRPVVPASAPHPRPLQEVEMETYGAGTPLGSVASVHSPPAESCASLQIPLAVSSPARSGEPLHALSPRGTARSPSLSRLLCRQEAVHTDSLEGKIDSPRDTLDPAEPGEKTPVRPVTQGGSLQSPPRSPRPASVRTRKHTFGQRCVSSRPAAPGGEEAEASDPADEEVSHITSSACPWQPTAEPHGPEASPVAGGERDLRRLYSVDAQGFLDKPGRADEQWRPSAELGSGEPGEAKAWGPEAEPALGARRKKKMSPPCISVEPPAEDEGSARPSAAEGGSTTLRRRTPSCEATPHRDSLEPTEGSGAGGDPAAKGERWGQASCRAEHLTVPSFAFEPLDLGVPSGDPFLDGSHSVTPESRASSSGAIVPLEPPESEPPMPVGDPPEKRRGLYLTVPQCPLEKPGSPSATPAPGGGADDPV
Chain of Trypsin (P00761 whole entry): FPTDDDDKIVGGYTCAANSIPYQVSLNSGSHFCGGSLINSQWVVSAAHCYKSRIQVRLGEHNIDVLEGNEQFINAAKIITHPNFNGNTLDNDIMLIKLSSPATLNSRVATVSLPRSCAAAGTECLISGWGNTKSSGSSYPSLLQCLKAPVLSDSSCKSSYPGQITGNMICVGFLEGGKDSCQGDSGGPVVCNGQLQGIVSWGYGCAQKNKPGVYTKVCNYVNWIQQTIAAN
Chain of NACHT, LRR and PYD domains-containing protein 3 (Q96P20 whole entry, the tested form may be a part): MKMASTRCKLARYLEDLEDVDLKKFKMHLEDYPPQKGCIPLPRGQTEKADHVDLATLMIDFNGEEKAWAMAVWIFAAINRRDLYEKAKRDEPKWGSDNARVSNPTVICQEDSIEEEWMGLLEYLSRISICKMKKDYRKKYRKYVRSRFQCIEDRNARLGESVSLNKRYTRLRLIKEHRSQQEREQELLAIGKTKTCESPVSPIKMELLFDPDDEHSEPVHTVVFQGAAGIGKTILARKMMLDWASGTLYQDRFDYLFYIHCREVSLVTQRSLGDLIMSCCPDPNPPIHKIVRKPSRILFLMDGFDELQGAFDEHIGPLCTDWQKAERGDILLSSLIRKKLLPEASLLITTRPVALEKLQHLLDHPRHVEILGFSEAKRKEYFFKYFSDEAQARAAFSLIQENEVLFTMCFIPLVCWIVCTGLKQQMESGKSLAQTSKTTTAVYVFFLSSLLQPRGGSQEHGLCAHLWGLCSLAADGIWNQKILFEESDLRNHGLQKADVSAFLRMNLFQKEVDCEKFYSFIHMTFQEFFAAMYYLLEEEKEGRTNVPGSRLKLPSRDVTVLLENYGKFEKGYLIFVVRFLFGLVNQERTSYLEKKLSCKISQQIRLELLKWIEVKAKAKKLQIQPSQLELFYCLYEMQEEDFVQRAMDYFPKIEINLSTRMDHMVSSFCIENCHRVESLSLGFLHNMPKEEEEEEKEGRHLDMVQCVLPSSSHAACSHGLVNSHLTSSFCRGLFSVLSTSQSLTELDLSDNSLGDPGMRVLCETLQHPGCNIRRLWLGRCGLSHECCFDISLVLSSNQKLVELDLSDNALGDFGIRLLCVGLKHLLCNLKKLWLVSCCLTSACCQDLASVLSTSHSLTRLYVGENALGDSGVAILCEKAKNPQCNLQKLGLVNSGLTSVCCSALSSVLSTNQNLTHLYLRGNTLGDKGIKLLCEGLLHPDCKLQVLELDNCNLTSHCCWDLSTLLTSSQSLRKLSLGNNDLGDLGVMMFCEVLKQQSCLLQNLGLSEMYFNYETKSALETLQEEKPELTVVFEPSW

With `CCC(C)Sc1cc(-c2nc3ccccn3c2NC2CCCCC2)ccc1OC` (stereo unspecified), the half-maximal activity concentration (AC50) was 21.1 µM (active) in [1]; 7.58 µM (active) on CAAX prenyl protease 2; 2.69 µM (active) on Trypsin; 18.2 µM (active) in test [2]; 2.82 µM (active) in test [4]; 15.7 µM (active) in [5]. Besides, in test [6], the concentration at half-maximal activity (AC50) is 3.11 µM (active). Moreover, the 50% effective concentration (EC50) on Streptokinase A was 15 µM (active); in test [3], 2.28 µM (active); in the test on Streptococcus it was 7.68 µM (active).

`O=C1C2C(c3ccccc3)=NN(c3ccccc3)C2C(=O)N1c1ccccc1` (stereo unspecified): the EC50 is > 85.3 µM (inactive) on Caspase-7, 1.02 µM (active) in [3], 5.11 µM (active) with Streptococcus and > 85.3 µM (inactive) at Caspase-3.

As to `CCN(CC)c1ccc2cc(-c3nnc(-c4ccccc4)o3)c(=O)oc2c1`, the EC50 in test [7] is 0.931 µM (active); in test [8], > 99 µM (inactive); in test [9], 3.19 µM (active); in test [10], > 99 µM (inactive).

For the compound `CNC(=O)Nc1ccc2nc(-c3ccco3)c(-c3ccco3)nc2c1`, in test [11], the IC50 is 0.816 µM (active).

With `Cc1cc(C(=O)NN=Cc2ccc(OC(=O)c3ccco3)cc2)c(C)o1`, the IC50 in test [12] was > 150 µM (active).

For the compound `CC(N)C(=O)OC(C)(C)Cc1ccc(Cl)cc1` (stereo unspecified) [ALAPROCLATE HYDROCHLORIDE], the half-maximal inhibitory concentration (IC50) in [13] was 8.02 µM (active).
